Source: patent US12404279B2, “Deubiquitinase inhibitors and methods of use thereof” (Molecure S.A., priority 2021, dated 2025)
Counter-ions that a name gives are not always drawn.

Each molecule was assayed against full-length USP7 (Homo sapiens (Human), UniProt Q93009) (assay: Enzymatic assay to determine IC50 of USP7 inhibitors (Ubiquitin-Rhodamine 110 cleavage)). Settings: 0.5 nM USP7, 0.5 μM Ubiquitin-Rhodamine 110, 45 min at 37° C.
Assay type: biochemical
Procedure, shortened: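 Full-length USP7 (0.5 nM) in 50 mM HEPES pH 7.5, 150 mM NaCl, 1 mM DTT, 1 mg/ml BSA, 0.05% Tween20 was preincubated 15 min with DTT at room temperature before compound addition.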

Chain of full-length USP7 (Q93009 whole entry): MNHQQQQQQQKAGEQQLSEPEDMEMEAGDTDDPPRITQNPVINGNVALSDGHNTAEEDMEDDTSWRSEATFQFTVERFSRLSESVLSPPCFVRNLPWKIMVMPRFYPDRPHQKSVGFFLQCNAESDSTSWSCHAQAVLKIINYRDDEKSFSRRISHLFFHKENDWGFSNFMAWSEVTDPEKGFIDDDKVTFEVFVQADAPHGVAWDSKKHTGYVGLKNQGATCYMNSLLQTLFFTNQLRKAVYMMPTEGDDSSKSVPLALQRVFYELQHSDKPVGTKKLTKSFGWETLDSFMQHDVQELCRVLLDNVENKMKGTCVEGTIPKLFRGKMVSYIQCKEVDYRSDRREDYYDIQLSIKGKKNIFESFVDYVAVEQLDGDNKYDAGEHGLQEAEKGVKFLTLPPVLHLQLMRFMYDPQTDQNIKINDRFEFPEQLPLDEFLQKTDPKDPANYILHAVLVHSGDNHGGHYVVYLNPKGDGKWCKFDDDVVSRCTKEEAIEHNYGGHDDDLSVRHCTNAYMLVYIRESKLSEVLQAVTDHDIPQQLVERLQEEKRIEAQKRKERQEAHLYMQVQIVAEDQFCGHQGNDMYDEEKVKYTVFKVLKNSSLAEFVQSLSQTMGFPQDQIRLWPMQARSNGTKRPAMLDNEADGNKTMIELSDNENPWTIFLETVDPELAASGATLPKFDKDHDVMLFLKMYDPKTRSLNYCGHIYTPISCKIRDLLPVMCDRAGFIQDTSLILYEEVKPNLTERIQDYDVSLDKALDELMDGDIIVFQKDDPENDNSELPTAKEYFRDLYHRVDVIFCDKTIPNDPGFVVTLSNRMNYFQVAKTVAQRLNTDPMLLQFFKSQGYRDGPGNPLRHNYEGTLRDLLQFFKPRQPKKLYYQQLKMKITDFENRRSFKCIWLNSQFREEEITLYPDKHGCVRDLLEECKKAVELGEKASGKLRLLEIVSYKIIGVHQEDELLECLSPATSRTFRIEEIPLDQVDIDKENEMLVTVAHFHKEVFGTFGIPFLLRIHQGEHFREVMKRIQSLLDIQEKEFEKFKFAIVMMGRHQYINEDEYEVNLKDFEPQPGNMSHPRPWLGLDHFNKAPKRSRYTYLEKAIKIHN

Row | Molecule | IC50
1 | CN[C@@H]1CN(C(=O)c2c(C)cc(C(F)(F)F)nc2-c2ccnc3cc(CN4C(=O)C5C(C4=O)C5(C)C)sc23)C[C@H]1C (stereo partly drawn) [Example 168, 6,6-dimethyl-3-((7-(4-methyl-3-((3R,4S)-3-methyl-4-(methylamino)pyrrolidine-1-carbonyl)-6-(trifluoromethyl)pyridin-2-yl)thieno[3,2-b]pyridin-2-yl)methyl)-3-azabicyclo[3.1.0]hexane-2,4-dione hydrochloride] | < 500 nM
2 | Cc1cc(C#N)nc(-c2ccnc3cc(CN4C(=O)C5C(C4=O)C5(C)C)sc23)c1C(=O)N1CCNC(C)(C)C1 (stereo not drawn) [Example 53, 6-(2-((6,6-dimethyl-2,4-dioxo-3-azabicyclo[3.1.0]hexan-3-yl)methyl)thieno[3,2-b]pyridin-7-yl)-5-(3,3-dimethylpiperazine-1-carbonyl)-4-methylpicolinonitrile hydrochloride] | 1000 to 10000 nM
3 | Cc1nc(C#N)cc(-c2ccnc3cc(CN4C(=O)C5C(C4=O)C5(C)C)sc23)c1C(=O)N1CC(F)(F)C1 (stereo not drawn) [Example 19, 5-(3,3-difluoroazetidine-1-carbonyl)-4-(2-((6,6-dimethyl-2,4-dioxo-3-azabicyclo[3.1.0]hexan-3-yl)methyl)thieno[3,2-b]pyridin-7-yl)-6-methylpicolinonitrile 2,2,2-trifluoroacetate] | 500 to 1000 nM
4 | Cc1cc(C#N)nc(-c2ccnc3cc(CN4C(=O)C5C(C4=O)C5(C)C)sc23)c1C(=O)N1CC(F)(F)C1 (stereo not drawn) [Example 51, 5-(3,3-difluoroazetidine-1-carbonyl)-6-(2-((6,6-dimethyl-2,4-dioxo-3-azabicyclo[3.1.0]hexan-3-yl)methyl)thieno[3,2-b]pyridin-7-yl)-4-methylpicolinonitrile hydrochloride] | < 500 nM
5 | Cc1c(Cl)cc(-c2ccnc3cc(CN4C(=O)C5C(C4=O)C5(C)C)sc23)n1C[C@@H]1CNCCO1 (stereo partly drawn) [Example 162, 3-((7-(4-chloro-5-methyl-1-(((S)-morpholin-2-yl)methyl)-1H-pyrrol-2-yl)thieno[3,2-b]pyridin-2-yl)methyl)-6,6-dimethyl-3-azabicyclo[3.1.0]hexane-2,4-dione hydrochloride] | < 500 nM
6 | 6,6-dimethyl-3-((7-(2-methyl-3-(pyrrolidin-3-ylmethyl)-6-(trifluoromethyl)pyridin-4-yl)thieno[3,2-b]pyridin-2-yl)methyl)-3-azabicyclo[3.1.0]hexane-2,4-dione 2,2,2-trifluoroacetate [Example 88] | < 500 nM
7 | 6-(2-((6,6-dimethyl-2,4-dioxo-3-azabicyclo[3.1.0]hexan-3-yl)methyl)thieno[3,2-b]pyridin-7-yl)-4-methyl-5-((S)-2-methylpiperazine-1-carbonyl)picolinonitrile hydrochloride [Example 47] | < 500 nM
8 | Cc1cc(C(F)(F)F)nc(-c2ccnc3cc(CN4C(=O)C5C(C4=O)C5(C)C)sc23)c1C(=O)N1CCC2(CCCN2)C1 (stereo not drawn) [Example 71, 6,6-dimethyl-3-((7-(4-methyl-3-(1,7-diazaspiro[4.4]nonane-7-carbonyl)-6-(trifluoromethyl)pyridin-2-yl)thieno[3,2-b]pyridin-2-yl)methyl)-3-azabicyclo[3.1.0]hexane-2,4-dione dihydrochloride] | < 500 nM
9 | Cc1cc(Cl)nc(-c2ccnc3cc(CN4C(=O)C5C(C4=O)C5(C)C)sc23)c1OC1CCCNC1 (racemic) [Example 3, 3-((7-(6-chloro-4-methyl-3-(piperidin-3-yloxy)pyridin-2-yl)thieno[3,2-b]pyridin-2-yl)methyl)-6,6-dimethyl-3-azabicyclo[3.1.0]hexane-2,4-dione hydrochloride] | < 500 nM

Other lines, results leading:

Row | IC50 | Molecule
10 | < 500 nM | Cc1nc(C(F)(F)F)cc(-c2ccnc3cc(CN4C(=O)C5C(C4=O)C5(C)C)sc23)c1CC1CNCCO1 (racemic) [Example 91, 6,6-dimethyl-3-((7-(2-methyl-3-(morpholin-2-ylmethyl)-6-(trifluoromethyl)pyridin-4-yl)thieno[3,2-b]pyridin-2-yl)methyl)-3-azabicyclo[3.1.0]hexane-2,4-dione 2,2,2-trifluoroacetate]
11 | 500 to 1000 nM | Cc1cc(C(F)(F)F)nc(-c2ccnc3cc(CN4C(=O)C5C(C4=O)C5(C)C)sc23)c1C(=O)N1CCOCC1 (stereo not drawn) [Example 84, 6,6-dimethyl-3-((7-(4-methyl-3-(morpholine-4-carbonyl)-6-(trifluoromethyl)pyridin-2-yl)thieno[3,2-b]pyridin-2-yl)methyl)-3-azabicyclo[3.1.0]hexane-2,4-dione hydrochloride]
12 | < 500 nM | Cc1nc(C(F)(F)F)cc(-c2ccnc3cc(CN4C(=O)C5C(C4=O)C5(C)C)sc23)c1CC1CCNC1 (stereo not drawn) [Example 89, 6,6-dimethyl-3-((7-(2-methyl-3-(pyrrolidin-3-ylmethyl)-6-(trifluoromethyl)pyridin-4-yl)thieno[3,2-b]pyridin-2-yl)methyl)-3-azabicyclo[3.1.0]hexane-2,4-dione hydrochloride]
13 | < 500 nM | Cc1cc(C(F)(F)F)nc(-c2ccnc3cc(CN4C(=O)C5C(C4=O)C5(C)C)sc23)c1CC1CNCCN1 (racemic) [Example 35, 6,6-dimethyl-3-((7-(4-methyl-3-(piperazin-2-ylmethyl)-6-(trifluoromethyl)pyridin-2-yl)thieno[3,2-b]pyridin-2-yl)methyl)-3-azabicyclo[3.1.0]hexane-2,4-dione hydrochloride]
14 | 500 to 1000 nM | Cc1cc(C(F)(F)F)nc(-c2ccnc3cc(CN4C(=O)C5C(C4=O)C5(C)C)sc23)c1C(=O)N1CCC(C)(N)C1 (racemic) [Example 137, 3-((7-(3-(3-amino-3-methylpyrrolidine-1-carbonyl)-4-methyl-6-(trifluoromethyl)pyridin-2-yl)thieno[3,2-b]pyridin-2-yl)methyl)-6,6-dimethyl-3-azabicyclo[3.1.0]hexane-2,4-dione trihydrochloride]
15 | < 500 nM | Cc1nc(C#N)cc(-c2ccnc3cc(CN4C(=O)C5C(C4=O)C5(C)C)sc23)c1C(=O)N1CCNC[C@@H]1C (stereo partly drawn) [Example 5, 4-(2-((6,6-dimethyl-2,4-dioxo-3-azabicyclo[3.1.0]hexan-3-yl)methyl)thieno[3,2-b]pyridin-7-yl)-6-methyl-5-((S)-2-methylpiperazine-1-carbonyl)picolinonitrile 2,2,2-trifluoroacetate]
16 | < 500 nM | Cc1cc(C(F)(F)F)nc(-c2ccnc3cc(CN4C(=O)C5C(C4=O)C5(C)C)sc23)c1C(=O)N1C[C@@H](N)[C@@H](F)C1 (stereo partly drawn) [Example 169, 3-((7-(3-((3R,4S)-3-amino-4-fluoropyrrolidine-1-carbonyl)-4-methyl-6-(trifluoromethyl)pyridin-2-yl)thieno[3,2-b]pyridin-2-yl)methyl)-6,6-dimethyl-3-azabicyclo[3.1.0]hexane-2,4-dione hydrochloride]

Same assay, conditions: at 1 μM of the test compound; given where IC50 not determined yet; read-out: percent value of inhibition of USP7 activity

Row | Molecule | inhibition at 1 µM
17 | CC1(C)C2C(=O)N(Cc3cc4nccc(-c5cc(Cl)cnc5O[C@H]5CCCNC5)c4s3)C(=O)C21 (stereo partly drawn) [Example 161, 3-((7-(5-chloro-2-(((S)-piperidin-3-yl)oxy)pyridin-3-yl)thieno[3,2-b]pyridin-2-yl)methyl)-6,6-dimethyl-3-azabicyclo[3.1.0]hexane-2,4-dione dihydrochloride] | 50 to 70%
18 | Cc1cc(Cl)cc(-c2ccnc3nc(C)n(C)c23)c1O[C@H]1CCCNC1 [Example 69, (S)-7-(5-chloro-3-methyl-2-(piperidin-3-yloxy)phenyl)-1,2-dimethyl-1H-imidazo[4,5-b]pyridine hydrochloride] | < 20%
19 | Cc1ccnc(-c2ccnc3cc(CN4C(=O)C5C(C4=O)C5(C)C)sc23)c1C(=O)N1CCOCC1 (stereo not drawn) [Example 48, 6,6-dimethyl-3-((7-(4-methyl-3-(morpholine-4-carbonyl)pyridin-2-yl)thieno[3,2-b]pyridin-2-yl)methyl)-3-azabicyclo[3.1.0]hexane-2,4-dione hydrochloride] | < 20%

Next, values leading:

Row | inhibition at 1 µM | Molecule
20 | 20 to 49% | Cc1cc(C(F)(F)F)nc(-c2ccnc3cc(CN4C(=O)C5C(C4=O)C5(C)C)sc23)c1CN1CCCC1=O (stereo not drawn) [Example 39, 6,6-dimethyl-3-((7-(4-methyl-3-((2-oxopyrrolidin-1-yl)methyl)-6-(trifluoromethyl)pyridin-2-yl)thieno[3,2-b]pyridin-2-yl)methyl)-3-azabicyclo[3.1.0]hexane-2,4-dione dihydrochloride]
21 | < 20% | CC1(C)C2C(=O)N(Cc3cc4nccc(-c5cc(C(F)(F)F)cnc5CC5NCCNC5=O)c4s3)C(=O)C21 (stereo not drawn) [Example 166, 6,6-dimethyl-3-((7-(2-((3-oxopiperazin-2-yl)methyl)-5-(trifluoromethyl)pyridin-3-yl)thieno[3,2-b]pyridin-2-yl)methyl)-3-azabicyclo[3.1.0]hexane-2,4-dione hydrochloride]
22 | < 20% | Cc1cc(C(F)(F)F)nc(-c2ccnc3cc(CN4C(=O)C5C(C4=O)C5(C)C)sc23)c1CN1CCOCC1=O (stereo not drawn) [Example 38, 6,6-dimethyl-3-((7-(4-methyl-3-((3-oxomorpholino)methyl)-6-(trifluoromethyl)pyridin-2-yl)thieno[3,2-b]pyridin-2-yl)methyl)-3-azabicyclo[3.1.0]hexane-2,4-dione hydrochloride]

Same assay, conditions: read-out: percent value of inhibition of USP7 activity

Row | Molecule | inhibition at 1 µM
23 | Cc1nc(C#N)cc(-c2ccnc3cc(CN4C(=O)C5C(C4=O)C5(C)C)sc23)c1C(=O)NC1CC(F)(F)C1 (stereo not drawn) [Example 14, 6-cyano-N-(3,3-difluorocyclobutyl)-4-(2-((6,6-dimethyl-2,4-dioxo-3-azabicyclo[3.1.0]hexan-3-yl)methyl)thieno[3,2-b]pyridin-7-yl)-2-methylnicotinamide 2,2,2-trifluoroacetate] | < 20%
24 | CC1(C)C2C(=O)N(Cc3cc4nccc(-c5nc(C(F)(F)F)cn5C[C@@H]5CNCCO5)c4s3)C(=O)C21 (stereo partly drawn) [Example 149, 6,6-dimethyl-3-((7-(1-(((S)-morpholin-2-yl)methyl)-4-(trifluoromethyl)-1H-imidazol-2-yl)thieno[3,2-b]pyridin-2-yl)methyl)-3-azabicyclo[3.1.0]hexane-2,4-dione 2,2,2-trifluoroacetate] | < 20%
